Laboratory results: patent publication US7101878B1 (Agouron Pharmaceuticals, Inc., priority 1998, dated 2006)
Read-outs that look alike come from different tables or passages of the source.

Molecular target: T1, human GnRH receptor (Homo sapiens, UniProt P30968)
T1 construct: expressed in transfected cells; host or cells: HEK 293 (hGnRH-R/293, from Dr. Stuart Sealfon)
T1 sequence (P30968 1-328): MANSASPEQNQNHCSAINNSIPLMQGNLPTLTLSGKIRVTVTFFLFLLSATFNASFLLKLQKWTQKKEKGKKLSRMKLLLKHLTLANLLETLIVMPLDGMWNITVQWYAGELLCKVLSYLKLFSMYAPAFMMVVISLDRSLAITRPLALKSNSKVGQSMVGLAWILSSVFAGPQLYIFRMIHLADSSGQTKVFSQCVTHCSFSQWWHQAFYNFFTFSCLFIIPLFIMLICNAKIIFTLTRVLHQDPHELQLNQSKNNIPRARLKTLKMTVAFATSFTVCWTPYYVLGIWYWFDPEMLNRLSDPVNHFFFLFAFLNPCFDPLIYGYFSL
Assay: Radioligand binding, 125I-GnRH-A displacement, membranes of HEK 293 cells with human GnRH receptor
Conditions: for remaining activity at 10 µM: read-out: S%R 10 uM hGnRHR; for IC50: read-out: hGnRH IC50; for remaining activity at 1 µM: 1 uM compound, read-out: S%R 1 uM hGnRHR
Summary of the method: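 After filtration and PBS washes, bound radioactivity was counted by scintillation and IC50 derived. Identical conditions applied for non-human receptors.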

[1] = 1 uM, read-out: % Inhib. @ 1 uM hGnRH
[2] = 1 h, repeat of % Inhib. at 1 uM, read-out: Repeats @ 1 uM hGnRH
[3] = 1 h, substrate remaining, 10 uM compound, closer to zero = closer to 100% inhibition
[4] = 1 h, substrate remaining, closer to zero = closer to 100% inhibition

Row | SMILES | inhibition at 1 µM [1] [%] | inhibition at 1 µM [2] [%] | other results
1 | COc1ccc(C(NC(=O)c2ccc(Cc3cc4c(cc3C)C(C)(C)CCC4(C)C)o2)c2ccc(OC)cc2)cc1 | 31 | 42 | 
2 | COc1ccc(C(=O)CNC(=O)c2ccc(Cc3cc4c(cc3C)C(C)(C)CCC4(C)C)o2)cc1 [drawing 1056] | 21 | 23 | 
3 | Cc1cc2c(cc1Cc1ccc(C(=O)NC(C#N)c3ccccc3)o1)C(C)(C)CCC2(C)C (stereo not drawn) [drawing 1233] | 43 | 48 | 
4 | Cc1cc2c(cc1Cc1ccc(C(=O)NCCC(=O)NC(c3ccccc3)c3ccccc3)o1)C(C)(C)CCC2(C)C | -23 | -8 | 
5 | CSc1ccccc1NC(=O)c1ccc(Cc2cc3c(cc2C)C(C)(C)CCC3(C)C)o1 [Compound 363] |  |  | remaining activity at 10 µM [3]: 14%
6 | Cc1cc2c(cc1Cc1ccc(C(=O)NCCSc3cc(C(F)(F)F)nc4ccccc34)o1)C(C)(C)CCC2(C)C | -18 | 5 | 
7 | COc1cc(OC)c(NC(=O)c2ccc(Cc3c(OC)ccc(OC)c3OC)o2)c(OC)c1 [Compound 209] |  |  | IC50: 4380 nM
8 | COc1ccc(OC)c(C(O)C(C)NC(=O)c2ccc(Cc3cc4c(cc3C)C(C)(C)CCC4(C)C)o2)c1 (stereo not drawn) | -6 | 14 | 
9 | Cc1cc2c(cc1Cc1ccc(C(=O)NCCC#N)o1)C(C)(C)CCC2(C)C [drawing 1179] | 42 | 44 | 
10 | Cc1cc2c(cc1Cc1ccc(C(=O)Nc3ccc(O)c4ncccc34)o1)C(C)(C)CCC2(C)C [Compound 341] |  |  | remaining activity at 10 µM [3]: 20%
11 | CCN(CCNC(=O)c1ccc(Cc2cc3c(cc2C)C(C)(C)CCC3(C)C)o1)c1cccc(C)c1 | 2 | 21 | 
12 | CNC(=O)c1ccc(Cc2cc3c(cc2C)C(C)(C)CCC3(C)C)o1 [Compound 37] |  |  | IC50: 2100 nM
13 | COC(CNC(=O)c1ccc(Cc2cc3c(cc2C)C(C)(C)CCC3(C)C)o1)OC [Compound 196] |  |  | IC50: 760 nM
14 | Cc1cc2c(cc1Cc1ccc(C(=O)Nc3ccc4cn[nH]c4c3)o1)C(C)(C)CCC2(C)C [Compound 365] |  |  | remaining activity at 10 µM [3]: 47%
15 | Cc1cc2c(cc1Cc1ccc(C(=O)NC(C)(C)Cc3ccccc3)o1)C(C)(C)CCC2(C)C | 38 | 39 | 
16 | COc1cccc(CCNC(=O)c2ccc(Cc3cc4c(cc3C)C(C)(C)CCC4(C)C)o2)c1OC [Compound 429] |  |  | remaining activity at 1 µM [4]: 40%
17 | Cc1cc2c(cc1Cc1ccc(C(=O)N3C[C@@H]4CCCC[C@@H]4CC3C(=O)NC(C)(C)C)o1)C(C)(C)CCC2(C)C (stereo partly drawn) [Compound 38.5] |  |  | IC50: > 10000 nM
18 | CC(=O)C1CCN(C(=O)c2ccc(Cc3cc4c(cc3C)C(C)(C)CCC4(C)C)o2)CC1 | 59 | 66 | 
19 | Cc1cc(C)c2ccc(NC(=O)c3ccc(Cc4cc5c(cc4C)C(C)(C)CCC5(C)C)o3)nc2n1 [Compound 191] |  |  | IC50: 4240 nM
20 | Cc1cc2c(cc1Cc1ccc(C(=O)Nc3ccc(N(C)C)cc3)o1)C(C)(C)CCC2(C)C [Compound 335] |  |  | remaining activity at 10 µM [3]: 2%

Row | SMILES | inhibition at 1 µM [1] [%] | inhibition at 1 µM [2] [%] | other results
21 | CCOc1ccccc1CNC(=O)c1ccc(Cc2cc3c(cc2C)C(C)(C)CCC3(C)C)o1 [drawing 1096] | 48 | 55 | 
22 | Cc1cc2c(cc1Cc1ccc(C(=O)NCCNCCNc3ccccc3)o1)C(C)(C)CCC2(C)C [drawing 1043] | -1 | -9 | 
23 | Cc1cc2c(cc1Cc1ccc(C(=O)NCc3cccc(F)c3)o1)C(C)(C)CCC2(C)C [drawing 1195] | 81 | 82 | 
24 | Cc1cc2c(cc1Cc1ccc(C(=O)NCCc3ccc(Cl)cc3Cl)o1)C(C)(C)CCC2(C)C [drawing 998] | 16 | 23 | 
25 | Cc1cc2c(cc1Cc1ccc(C(=O)N(C)Cc3ccccc3Cl)o1)C(C)(C)CCC2(C)C | 14 | 21 | 
26 | Cc1cc2c(cc1Cc1ccc(C(=O)Nc3ccc(CC#N)cc3)o1)C(C)(C)CCC2(C)C [Compound 347] |  |  | remaining activity at 10 µM [3]: 2%
27 | Cc1cc2c(cc1Cc1ccc(C(=O)Nc3cccc(CO)c3)o1)C(C)(C)CCC2(C)C [Compound 322] |  |  | remaining activity at 10 µM [3]: 4%
28 | Cc1cc2c(cc1Cc1ccc(C(=O)N3CCN(c4ccccc4Cl)CC3)o1)C(C)(C)CCC2(C)C | -1 | -7 | 
29 | COc1cccc(CNC(=O)c2ccc(Cc3cc4c(cc3C)C(C)(C)CCC4(C)C)o2)c1OC [drawing 1093] | 76 | 83 | 
30 | Cc1cc2c(cc1Cc1ccc(C(=O)NCc3ccc(C(C)(C)C)cc3)o1)C(C)(C)CCC2(C)C [Compound 49] |  |  | IC50: 3700 nM
31 | Cc1cc2c(cc1Cc1ccc(C(=O)Nc3ccc4[nH]ccc4c3)o1)C(C)(C)CCC2(C)C [Compound 357] |  |  | S%R 10 uM hGnRHR (substrate remaining, 10 uM compound, closer to zero = closer to 100% inhibition): −2%
32 | Cc1cc2c(cc1Cc1ccc(C(=O)Nc3ccc(N4CCOCC4)cc3)o1)C(C)(C)CCC2(C)C [Compound 30] |  |  | IC50: 1350 nM
33 | Cc1cc2c(cc1Cc1ccc(C(=O)Nc3c(C)cccc3C(C)C)o1)C(C)(C)CCC2(C)C [Compound 394] |  |  | remaining activity at 10 µM [3]: 57%
34 | COc1ccc(CNC(=O)c2ccc(Cc3cc4c(cc3C)C(C)(C)CCC4(C)C)o2)c(OC)c1 [drawing 1224] | 94 | 96 | 
35 | Cc1cc(NC(=O)c2ccc(Cc3cc4c(cc3C)C(C)(C)CCC4(C)C)o2)n(-c2ccccc2)n1 [Compound 328] |  |  | remaining activity at 10 µM [3]: 33%
36 | Cc1cc2c(cc1Cc1ccc(C(=O)NCc3cccc(C)c3C)o1)C(C)(C)CCC2(C)C [drawing 1192] | 81 | 85 | 
37 | Cc1cccc(CNC(=O)c2ccc(Cc3cc4c(cc3C)C(C)(C)CCC4(C)C)o2)c1 [drawing 1174] | 93 | 95 | 
38 | Cc1cc2c(cc1Cc1ccc(C(=O)NCCN(C)C)o1)C(C)(C)CCC2(C)C | -4 | -7 | 
39 | Cc1cc2c(cc1Cc1ccc(C(=O)N3CCN(c4ncccc4C(F)(F)F)CC3)o1)C(C)(C)CCC2(C)C | -16 | -29 | 
40 | COc1cc(OC)c(NC(=O)c2ccc(Cc3c(C)c(C)c(C)c(C)c3C)o2)c(OC)c1 [Compound 197] |  |  | IC50: 1040 nM

Row | SMILES | inhibition at 1 µM [1] [%] | inhibition at 1 µM [2] [%] | other results
41 | Cc1cc2c(cc1Cc1ccc(C(=O)NCC3CCCC(CNc4cccc(NCC5CCCO5)n4)C3)o1)C(C)(C)CCC2(C)C (stereo not drawn) | 84 | 89 | 
42 | Cc1cc2c(cc1Cc1ccc(C(=O)Nn3c(O)nnc3-c3ccccc3)o1)C(C)(C)CCC2(C)C |  |  | inhibition at 10 µM (repeat, read-out: Repeats @ 10 uM hGnRH (% inhib.)): -25%; inhibition at 10 µM (read-out: % inhib. @ 10 uM hGnRH): -25%
43 | Cc1cc2c(cc1Cc1ccc(C(=O)Nc3c(C)cccc3O)o1)C(C)(C)CCC2(C)C [Compound 373] |  |  | remaining activity at 10 µM [3]: 19%
44 | COc1cc(OC)c(Cc2ccc(C(=O)Nc3c(OC)cccc3OC)o2)c(OC)c1 [Compound 220] |  |  | IC50: 630 nM
45 | Cc1cc2c(cc1Cc1ccc(C(=O)NC3c4ccccc4CC3O)o1)C(C)(C)CCC2(C)C (stereo not drawn) | -11 | -29 | 
46 | COc1cc(CNC(=O)c2ccc(Cc3cc4c(cc3C)C(C)(C)CCC4(C)C)o2)ccc1O [drawing 1222] | 54 | 54 | 
47 | Cc1cc2c(cc1Cc1ccc(C(=O)Nc3c(O)cccc3O)o1)C(C)(C)CCC2(C)C [Compound 189] |  |  | IC50: 940 nM
48 | Cc1cc2c(cc1Cc1ccc(C(=O)Nc3ccc4[nH]c(O)nc4c3)o1)C(C)(C)CCC2(C)C [Compound 355] |  |  | remaining activity at 10 µM [3]: 20%
49 | Cc1cc2c(cc1Cc1ccc(C(=O)NC3Cc4ccccc4C3)o1)C(C)(C)CCC2(C)C | 11 | 15 | 
50 | CCN(CC)S(=O)(=O)c1ccc(OC)c(NC(=O)c2ccc(Cc3cc4c(cc3C)C(C)(C)CCC4(C)C)o2)c1 [Compound 26] |  |  | IC50: 1010 nM
51 | Cc1cc2c(cc1Cc1ccc(C(=O)Nc3ccccc3C(=O)NC3CC45CCN4CCC35)o1)C(C)(C)CCC2(C)C (stereo not drawn) [Compound 349] |  |  | remaining activity at 10 µM [3]: 47%
52 | Cc1cc2c(cc1Cc1ccc(C(=O)NC(C)CCc3ccccc3)o1)C(C)(C)CCC2(C)C (stereo not drawn) [Compound 423] |  |  | remaining activity at 1 µM [4]: 49%
53 | Cc1cc2c(cc1Cc1ccc(C(=O)N(CCCO)Cc3ccccc3[N+](=O)[O-])o1)C(C)(C)CCC2(C)C | -5 | 6 | 
54 | Cc1cc2c(cc1Cc1ccc(C(=O)NCCCN(C)CCCN)o1)C(C)(C)CCC2(C)C [drawing 1005] | 13 | 33 | 
55 | Cc1cc2c(cc1Cc1ccc(C(=O)NCCc3ccc(Br)cc3)o1)C(C)(C)CCC2(C)C [drawing 1171] | 16 | 24 | 
56 | Cc1nc2cc(NC(=O)c3ccc(Cc4cc5c(cc4C)C(C)(C)CCC5(C)C)o3)ccc2s1 [Compound 360] |  |  | remaining activity at 10 µM [3]: 4%
57 | Cc1cc2c(cc1Cc1ccc(C(=O)NCCc3ccc(Cl)c(Cl)c3)o1)C(C)(C)CCC2(C)C | -5 | 8 | 
58 | Cc1cc2c(cc1Cc1ccc(C(=O)NC(Cc3ccccc3)c3ccccc3)o1)C(C)(C)CCC2(C)C (stereo not drawn) | 13 | 19 | 
59 | Cc1cc2c(cc1Cc1ccc(C(=O)Nc3ncccc3O)o1)C(C)(C)CCC2(C)C [Compound 369] |  |  | remaining activity at 10 µM [3]: 11%
60 | Cc1cc2c(cc1Cc1ccc(C(=O)N3CCN(c4nccc(NCC5CCCO5)n4)CC3)o1)C(C)(C)CCC2(C)C (stereo not drawn) | 22 | 25 | 
